The results in this text go back to publication PMC5218480 (PLoS ONE, 2017).

The assay concerns MV-4-11 cells. The experiment in a line: Gene expression microarray analysis (Affymetrix PrimeView) and GSEA. The settings on record: MV-4-11 cells, 48 hours. Format: cell-based, human. The arrangement: RFU PODN (11730768_x_at) / Fold change /veh PODN (11730768_x_at) / RFU LINC00158 (11744669_a_at) / Fold change /veh LINC00158 (11744669_a_at) / RFU DUSP10 (11751237_a_at) / Fold change /veh DUSP10 (11751237_a_at) / RFU ID3 (11757404_x_at) / Fold change /veh ID3 (11757404_x_at) / RFU PLEKHG5 (11737974_s_at) / Fold change /veh PLEKHG5 (11737974_s_at) / RFU LRRC4B (11730491_at) / Fold change /veh LRRC4B (11730491_at) / RFU GIMAP4 (11747438_a_at) / Fold change /veh GIMAP4 (11747438_a_at) / RFU KRT8 (11758183_x_at) / Fold change /veh KRT8 (11758183_x_at) / RFU CNN1 (11734310_a_at) / Fold change /veh CNN1 (11734310_a_at) / RFU VPS37D (11726825_at) / Fold change /veh VPS37D (11726825_at) / RFU C10orf10 (11716522_x_at) / Fold change /veh C10orf10 (11716522_x_at) / RFU KIR2DL2 /// KIR2DL4 /// KIR2DL5A /// KIR2DL5B /// KIR2DS1 /// KIR2DS2 /// KIR2DS3 /// KIR2DS4 /// KIR3DL3 /// KIR3DL3 /// KIR3DS1 (11738374_at) / Fold change /veh KIR2DL2 /// KIR2DL4 /// KIR2DL5A /// KIR2DL5B /// KIR2DS1 /// KIR2DS2 /// KIR2DS3 /// KIR2DS4 /// KIR3DL3 /// KIR3DL3 /// KIR3DS1 (11738374_at) / RFU C1QL1 (11718748_at) / Fold change /veh C1QL1 (11718748_at) / RFU TMPRSS4 (11747572_a_at) / Fold change /veh TMPRSS4 (11747572_a_at) / RFU HAMP (11756126_x_at) / Fold change /veh HAMP (11756126_x_at) / RFU RNFT2 (11725882_a_at) / Fold change /veh RNFT2 (11725882_a_at) / RFU NR4A2 (11747474_a_at) / Fold change /veh NR4A2 (11747474_a_at) / RFU ABCC12 (11746883_a_at) / Fold change /veh ABCC12 (11746883_a_at) / RFU TMEM136 (11760407_x_at) / Fold change /veh TMEM136 (11760407_x_at) / RFU CLDN22 /// WWC2 (11732394_at) / Fold change /veh CLDN22 /// WWC2 (11732394_at) / RFU HLA-DPB1 (11760878_x_at) / Fold change /veh HLA-DPB1 (11760878_x_at) / RFU SPINT1 (11716480_a_at) / Fold change /veh SPINT1 (11716480_a_at) / RFU GAP43 (11754022_s_at) / Fold change /veh GAP43 (11754022_s_at) / RFU A4GNT (11735810_at) / Fold change /veh A4GNT (11735810_at) / RFU PRB3 (11715151_x_at) / Fold change /veh PRB3 (11715151_x_at) / RFU TUBB4B (11761932_at) / Fold change /veh TUBB4B (11761932_at) / RFU CAPN14 (11732068_a_at) / Fold change /veh CAPN14 (11732068_a_at) / RFU TMCC2 (11721928_a_at) / Fold change /veh TMCC2 (11721928_a_at) / RFU IRGQ (11745062_a_at) / Fold change /veh IRGQ (11745062_a_at) / RFU FAM174B (11720279_a_at) / Fold change /veh FAM174B (11720279_a_at) / RFU TMPRSS4 (11748680_a_at) / Fold change /veh TMPRSS4 (11748680_a_at) / RFU FAM212B (11763350_a_at) / Fold change /veh FAM212B (11763350_a_at) / RFU PLEKHG5 (11743358_a_at) / Fold change /veh PLEKHG5 (11743358_a_at) / RFU ZSCAN30 (11745921_a_at) / Fold change /veh ZSCAN30 (11745921_a_at) / RFU CMKLR1 (11741424_a_at) / Fold change /veh CMKLR1 (11741424_a_at) / RFU LOC101060620 /// MAPK8IP1 (11723275_at) / Fold change /veh LOC101060620 /// MAPK8IP1 (11723275_at) / RFU SPTSSB (11747773_x_at) / Fold change /veh SPTSSB (11747773_x_at) / RFU PRSS12 (11739890_at) / Fold change /veh PRSS12 (11739890_at) / RFU BIN1 (11741810_x_at) / Fold change /veh BIN1 (11741810_x_at) / RFU WNT11 (11732464_a_at) / Fold change /veh WNT11 (11732464_a_at) / RFU C10orf10 (11716521_a_at) / Fold change /veh C10orf10 (11716521_a_at) / RFU C5orf56 (11738089_at) / Fold change /veh C5orf56 (11738089_at) / RFU CYB561 (11721691_x_at) / Fold change /veh CYB561 (11721691_x_at) / RFU ANKRD19P (11752326_a_at) / Fold change /veh ANKRD19P (11752326_a_at) / RFU OR2T12 /// OR2T33 /// OR2T8 (11738714_s_at) / Fold change /veh OR2T12 /// OR2T33 /// OR2T8 (11738714_s_at) / RFU VCAN (11748164_a_at) / Fold change /veh VCAN (11748164_a_at) / RFU JSRP1 (11732532_at) / Fold change /veh JSRP1 (11732532_at) / RFU KRTAP10-11 (11738290_x_at) / Fold change /veh KRTAP10-11 (11738290_x_at) / RFU MYO3A (11730013_a_at) / Fold change /veh MYO3A (11730013_a_at) / RFU EBF3 (11725865_a_at) / Fold change /veh EBF3 (11725865_a_at) / RFU CAMK2N1 (11719241_x_at) / Fold change /veh CAMK2N1 (11719241_x_at) / RFU C5orf56 (11738088_a_at) / Fold change /veh C5orf56 (11738088_a_at) / RFU OLFML3 (11715873_a_at) / Fold change /veh OLFML3 (11715873_a_at) / RFU LOC100653217 /// NTM (11731650_a_at) / Fold change /veh LOC100653217 /// NTM (11731650_a_at) / RFU MAPK11 (11762145_a_at) / Fold change /veh MAPK11 (11762145_a_at) / RFU FIZ1 (11724087_x_at) / Fold change /veh FIZ1 (11724087_x_at) / RFU OASL (11726364_x_at) / Fold change /veh OASL (11726364_x_at) / RFU SOX15 (11748057_x_at) / Fold change /veh SOX15 (11748057_x_at) / RFU CD79A (11719716_a_at) / Fold change /veh CD79A (11719716_a_at) / RFU HIST1H1D (11736915_at) / Fold change /veh HIST1H1D (11736915_at) / RFU CASKIN2 (11723855_a_at) / Fold change /veh CASKIN2 (11723855_a_at) / RFU LOC730098 (11760151_x_at) / Fold change /veh LOC730098 (11760151_x_at) / RFU OR4N2 (11742367_at) / Fold change /veh OR4N2 (11742367_at) / RFU PRRT2 (11749266_a_at) / Fold change /veh PRRT2 (11749266_a_at) / RFU SNX32 (11753110_a_at) / Fold change /veh SNX32 (11753110_a_at) / RFU CDHR5 (11726645_a_at) / Fold change /veh CDHR5 (11726645_a_at) / RFU RCAN1 (11760418_a_at) / Fold change /veh RCAN1 (11760418_a_at) / RFU FAM167A (11723789_a_at) / Fold change /veh FAM167A (11723789_a_at) / RFU FAM26E (11764081_at) / Fold change /veh FAM26E (11764081_at) / RFU ISYNA1 (11749810_s_at) / Fold change /veh ISYNA1 (11749810_s_at) / RFU ACY1 (11761880_at) / Fold change /veh ACY1 (11761880_at) / RFU 11764098_at / Fold change /veh 11764098_at / RFU SAMD14 (11745864_x_at) / Fold change /veh SAMD14 (11745864_x_at) / RFU NPB (11741838_a_at) / Fold change /veh NPB (11741838_a_at) / RFU TMPRSS6 (11731388_a_at) / Fold change /veh TMPRSS6 (11731388_a_at) / RFU KRTAP10-2 (11738614_at) / Fold change /veh KRTAP10-2 (11738614_at) / RFU ARHGAP8 /// PRR5-ARHGAP8 (11727945_x_at) / Fold change /veh ARHGAP8 /// PRR5-ARHGAP8 (11727945_x_at) / RFU KRTAP5-7 /// NADSYN1 (11734609_at) / Fold change /veh KRTAP5-7 /// NADSYN1 (11734609_at) / RFU RASL12 (11751679_a_at) / Fold change /veh RASL12 (11751679_a_at) / RFU CDKN2B (11736163_a_at) / Fold change /veh CDKN2B (11736163_a_at) / RFU PRF1 (11729649_at) / Fold change /veh PRF1 (11729649_at) / RFU, ZNF638 /// ZNF638-IT1 / Fold change vs veh, ZNF638 /// ZNF638-IT1 / RFU, PANK3 / Fold change vs veh, PANK3 / RFU, SH3YL1 / Fold change vs veh, SH3YL1 / RFU, ZEB2 / Fold change vs veh, ZEB2 / RFU, NRIP1 / Fold change vs veh, NRIP1 / RFU, PTTG1IP / Fold change vs veh, PTTG1IP / RFU, CAPN2 / Fold change vs veh, CAPN2 / RFU, MED14 / Fold change vs veh, MED14 / RFU, SNORA58 / Fold change vs veh, SNORA58 / RFU, C1orf63 / Fold change vs veh, C1orf63 / RFU, LRRFIP1 / Fold change vs veh, LRRFIP1 / RFU, NDUFAF7 / Fold change vs veh, NDUFAF7 / RFU, SLC12A2 / Fold change vs veh, SLC12A2 / RFU, IBTK / Fold change vs veh, IBTK / RFU, ESF1 / Fold change vs veh, ESF1 / Fold change vs veh, TMEM50B / RFU, TAOK1 / Fold change vs veh, TAOK1 / RFU, ACBD3 / Fold change vs veh, ACBD3 / RFU, TMA16 / Fold change vs veh, TMA16 / RFU, RWDD3 / Fold change vs veh, RWDD3 / RFU, BCAT1 / Fold change vs veh, BCAT1 / RFU, EDEM3 / Fold change vs veh, EDEM3 / RFU, TMEM33 / Fold change vs veh, TMEM33 / RFU, WDR75 / Fold change vs veh, WDR75 / RFU, AHCTF1 / Fold change vs veh, AHCTF1 / RFU, TFRC / Fold change vs veh, TFRC / RFU, ZDHHC17 / Fold change vs veh, ZDHHC17 / RFU, NOM1 / Fold change vs veh, NOM1 / RFU, ARL8B / Fold change vs veh, ARL8B / RFU, ZBTB11 / Fold change vs veh, ZBTB11 / RFU, TAMM41 / Fold change vs veh, TAMM41 / RFU, KIAA1704 /// LOC100996395 / Fold change vs veh, KIAA1704 /// LOC100996395 / RFU, ING1 / Fold change vs veh, ING1 / RFU, TRMT61B / Fold change vs veh, TRMT61B / RFU, FUBP3 / Fold change vs veh, FUBP3 / RFU, TP53 / Fold change vs veh, TP53 / RFU, TNKS2 / Fold change vs veh, TNKS2 / RFU, ZFP14 / Fold change vs veh, ZFP14 / RFU, ACTR2 / Fold change vs veh, ACTR2 / RFU, PPP3R1 / Fold change vs veh, PPP3R1 / RFU, PIK3R1 / Fold change vs veh, PIK3R1 / RFU, HNRNPA1 / Fold change vs veh, HNRNPA1 / RFU, RNF170 / Fold change vs veh, RNF170 / RFU, ZNF28 / Fold change vs veh, ZNF28 / RFU, RNGTT / Fold change vs veh, RNGTT / RFU, OGT / Fold change vs veh, OGT / RFU, BRD1 / Fold change vs veh, BRD1 / RFU, MARS / Fold change vs veh, MARS / RFU, ZNF655 / Fold change vs veh, ZNF655 / RFU, FAHD1 / Fold change vs veh, FAHD1 / RFU, BDP1 / Fold change vs veh, BDP1 / RFU, LRRCC1 / Fold change vs veh, LRRCC1 / RFU, ARID1A / Fold change vs veh, ARID1A / RFU, ZNF146 / Fold change vs veh, ZNF146 / RFU, ZNF330 / Fold change vs veh, ZNF330 / RFU, GPN3 / Fold change vs veh, GPN3 / RFU, C9orf123 / Fold change vs veh, C9orf123 / RFU, N4BP2L2 / Fold change vs veh, N4BP2L2 / RFU, ARFIP1 / Fold change vs veh, ARFIP1 / RFU, FAM179B / Fold change vs veh, FAM179B / RFU, BCL10 / Fold change vs veh, BCL10 / RFU, UHRF1BP1L / Fold change vs veh, UHRF1BP1L / RFU, BET1 / Fold change vs veh, BET1 / RFU, CNOT2 / Fold change vs veh, CNOT2 / RFU, ZNF268 / Fold change vs veh, ZNF268 / Fold change vs veh, ZNF507 / RFU, DGCR2 / Fold change vs veh, DGCR2 / RFU, WDSUB1 / Fold change vs veh, WDSUB1 / Fold change vs veh, HSP90B1 /// MIR3652 / RFU, ADSS / Fold change vs veh, ADSS / RFU, GK / Fold change vs veh, GK / RFU, ZNF148 / Fold change vs veh, ZNF148 / RFU, TAF9 / Fold change vs veh, TAF9 / RFU, SLC1A5 / Fold change vs veh, SLC1A5 / RFU, SLMO2 / Fold change vs veh, SLMO2 / RFU, ABCC4 / Fold change vs veh, ABCC4 / RFU, LOC101060439 /// RAP1B / Fold change vs veh, LOC101060439 /// RAP1B / RFU, RFX7 / Fold change vs veh, RFX7 / RFU, GTPBP10 / Fold change vs veh, GTPBP10 / RFU, CNEP1R1 / Fold change vs veh, CNEP1R1 / RFU, BIVM-ERCC5 /// ERCC5 / Fold change vs veh, BIVM-ERCC5 /// ERCC5 / RFU, ILF3 / Fold change vs veh, ILF3 / RFU 11762660_at / Fold change /veh 11762660_at / RFU VCAN (11757783_s_at) / Fold change /veh VCAN (11757783_s_at) / RFU DDX43 (11728927_at) / Fold change /veh DDX43 (11728927_at) / RFU KRT8 (11758188_x_at) / Fold change /veh KRT8 (11758188_x_at) / RFU NKD1 (11759106_at) / Fold change /veh NKD1 (11759106_at) / RFU SRD5A1 (11742802_a_at) / Fold change /veh SRD5A1 (11742802_a_at) / RFU TPSAB1 /// TPSB2 (11721975_s_at) / Fold change /veh TPSAB1 /// TPSB2 (11721975_s_at) / RFU GSTM3 (11746129_a_at) / Fold change /veh GSTM3 (11746129_a_at) / RFU IL23R (11737362_x_at) / Fold change /veh IL23R (11737362_x_at) / RFU TMEM51 (11727254_a_at) / Fold change /veh TMEM51 (11727254_a_at) / RFU PIWIL2 (11732686_x_at) / Fold change /veh PIWIL2 (11732686_x_at) / RFU ORM1 (11744905_x_at) / Fold change /veh ORM1 (11744905_x_at) / RFU CCDC152 (11743942_at) / Fold change /veh CCDC152 (11743942_at) / RFU ECM1 (11717891_a_at) / Fold change /veh ECM1 (11717891_a_at) / RFU IL23R (11748794_a_at) / Fold change /veh IL23R (11748794_a_at) / RFU TNFAIP8L3 (11732012_x_at) / Fold change /veh TNFAIP8L3 (11732012_x_at) / RFU MBOAT4 (11741988_at) / Fold change /veh MBOAT4 (11741988_at) / RFU 11764193_at / Fold change /veh 11764193_at / RFU TMEM53 (11763286_at) / Fold change /veh TMEM53 (11763286_at) / RFU MAGEB2 (11727129_at) / Fold change /veh MAGEB2 (11727129_at) / RFU TMEM200A (11744735_a_at) / Fold change /veh TMEM200A (11744735_a_at) / RFU CCDC152 (11751479_a_at) / Fold change /veh CCDC152 (11751479_a_at) / RFU FAM211A (11726209_a_at) / Fold change /veh FAM211A (11726209_a_at) / RFU RGS16 (11746705_a_at) / Fold change /veh RGS16 (11746705_a_at) / RFU VCAN (11755009_s_at) / Fold change /veh VCAN (11755009_s_at) / RFU RHOB (11743442_s_at) / Fold change /veh RHOB (11743442_s_at) / RFU RGS16 (11720943_a_at) / Fold change /veh RGS16 (11720943_a_at) / RFU RGS16 (11720944_at) / Fold change /veh RGS16 (11720944_at) / RFU, VPS4B / Fold change vs veh, VPS4B / RFU, CREB1 / Fold change vs veh, CREB1 / RFU, DNAJC13 / Fold change vs veh, DNAJC13 / RFU, GNAQ / Fold change vs veh, GNAQ / RFU, CDK5R1 / Fold change vs veh, CDK5R1 / RFU, ZRANB3 / Fold change vs veh, ZRANB3 / RFU, CUL4A / Fold change vs veh, CUL4A / RFU, CCNY / Fold change vs veh, CCNY / RFU, UFL1 / Fold change vs veh, UFL1 / RFU, COG3 / Fold change vs veh, COG3 / RFU, DIAPH2 / Fold change vs veh, DIAPH2 / RFU, SKA2 / Fold change vs veh, SKA2 / RFU, AFF3 / Fold change vs veh, AFF3 / RFU, LMF1 / Fold change vs veh, LMF1 / RFU, IPO11 / Fold change vs veh, IPO11 / RFU, DFFB / Fold change vs veh, DFFB / RFU, FOXP1 / Fold change vs veh, FOXP1 / RFU, CARD8 / Fold change vs veh, CARD8 / RFU, STRN3 / Fold change vs veh, STRN3 / RFU, ADK / Fold change vs veh, ADK / RFU, RASSF2 / Fold change vs veh, RASSF2 / RFU, WIPF1 / Fold change vs veh, WIPF1 / RFU, LARP1B / Fold change vs veh, LARP1B / RFU, RASA1 / Fold change vs veh, RASA1 / RFU, RB1 / Fold change vs veh, RB1 / RFU, PPFIA1 / Fold change vs veh, PPFIA1 / RFU, MAT2A / Fold change vs veh, MAT2A / RFU, CCT5 / Fold change vs veh, CCT5 / RFU, WDR92 / Fold change vs veh, WDR92 / RFU, CUX1 / Fold change vs veh, CUX1 / RFU, TTC7A / Fold change vs veh, TTC7A / RFU, TMEM135 / Fold change vs veh, TMEM135 / RFU, DEPTOR / Fold change vs veh, DEPTOR / RFU, CPM / Fold change vs veh, CPM / RFU, DNAJB6 / Fold change vs veh, DNAJB6 / RFU, CACNA2D3 / Fold change vs veh, CACNA2D3 / RFU, DTX4 / Fold change vs veh, DTX4 / RFU, TFCP2 / Fold change vs veh, TFCP2 / RFU, GMCL1 /// GMCL1P1 / Fold change vs veh, GMCL1 /// GMCL1P1 / RFU, AEBP2 / Fold change vs veh, AEBP2 / RFU, SNHG1 /// SNORD22 /// SNORD25 /// SNORD26 /// SNORD27 /// SNORD28 /// SNORD29 /// SNORD31 / Fold change vs veh, SNHG1 /// SNORD22 /// SNORD25 /// SNORD26 /// SNORD27 /// SNORD28 /// SNORD29 /// SNORD31 / Fold change (Aza/veh), C12orf56 (ProbeSet 11735607_a_at) / Fold change (ACY-1035/veh), C12orf56 (ProbeSet 11735607_a_at) / Fold change (Aza/veh), FGFR1OP (ProbeSet 11751329_s_at) / Fold change (ACY-1035/veh), FGFR1OP (ProbeSet 11751329_s_at) / Fold change (Aza/veh), VPS36 (ProbeSet 11739960_a_at) / Fold change (ACY-1035/veh), VPS36 (ProbeSet 11739960_a_at) / RFU SYPL1 (11715823_x_at) / Fold change /veh SYPL1 (11715823_x_at) / RFU IGFBP7 (11715501_s_at) / Fold change /veh IGFBP7 (11715501_s_at) / RFU REEP3 (11722064_at) / Fold change /veh REEP3 (11722064_at) / RFU IGLL1 (11728026_x_at) / Fold change /veh IGLL1 (11728026_x_at): dose or concentration left out as unconfirmed.

In the case of `Nc1ccc(-c2cccs2)cc1NC(=O)c1ccc2c(c1)cc(C1CC1)n2CCN1CCOCC1` [ACY-1035], the “RFU IRGQ (11745062_a_at)” value is 18.74 RFU.
